In patent US20240315990A1, “Adelmidrol For Use In Diseases Characterized By Insufficient Agonism Of PPAR-GAMMA Receptor” (Epitech Group S.P.A., priority 2016, published 2024):

System: bleomycin-induced lung edema
Experiment: bleomycin-induced lung lesion, lung edema (wet vs dry lung weight)
Type: in vivo, CD1 male mice
Method: CD1 male mice ((CD1(ICR) mice (25-35 g; Harlan Nossan, Italy) were accommodated in a controlled environment and fed with standard food and water. Using a catheter (tracheotomy tube), the mice received a single intratracheal instillation of physiological solution (0.9%) or saline containing bleomycin sulfate (0.1 U/mouse) in a final volume of 100 μL, and the liquid was immediately followed by 300 μL of air in order to also ensure the distribution thereof in the distal airways. The weight of the wet lungs was calculated after 28 days upon injecting bleomycin by means of careful excision of the lung from the adjacent tissues. The lungs were exposed for 48 hours at 180° C. and the dry weight was then assessed. The lung water content was calculated as wet weight-to-dry weight ratio. In order to assess the degree of the existing lung edema, at the end of the experiment, even in untreated animals, the comparison of the wet lung weight to the lung weight after water removal was carried out. The results are shown in the chart in FIG. 6.

SMILES: O=C(CCCCCCCC(=O)NCCO)NCCO [Adelmidrol, azelaic acid diethanolamide]
- difference in lung weight between fresh organ and dried organ (FIG. 6) (mice not treated with BLM): does not change the difference in lung weight between fresh organ and dried organ
- difference in lung weight between fresh organ and dried organ (FIG. 6) (mice treated with BLM and Adelmidrol vs BLM and inert vehicle): considerably lower
